By melting point is commonly meant the temperature of the solid-liquid transition.

From patent US6403573B1, “Compounds of azetidine and pyrrolidin” (Akzo Nobel N.V., priority 2000, dated 2002) come the findings set out here.

The structures appear in SMILES notation.

One data set has as its target T1, 5HT2C receptors (Rattus norvegicus, UniProt P08909).
T1 construct: from tissue; host or cells: living rats (in vivo)
T1 sequence (P08909 33-460): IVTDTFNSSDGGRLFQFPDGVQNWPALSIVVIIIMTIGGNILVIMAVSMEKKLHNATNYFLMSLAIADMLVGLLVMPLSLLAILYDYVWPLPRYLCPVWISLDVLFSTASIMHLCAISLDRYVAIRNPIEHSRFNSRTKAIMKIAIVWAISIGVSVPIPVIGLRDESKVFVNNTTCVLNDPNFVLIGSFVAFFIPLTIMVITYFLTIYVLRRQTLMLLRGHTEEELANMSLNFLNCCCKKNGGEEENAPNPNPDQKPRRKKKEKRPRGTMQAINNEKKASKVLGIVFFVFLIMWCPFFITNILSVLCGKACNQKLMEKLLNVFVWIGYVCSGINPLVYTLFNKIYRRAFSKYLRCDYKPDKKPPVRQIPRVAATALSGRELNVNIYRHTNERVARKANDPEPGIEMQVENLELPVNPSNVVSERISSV
Put plainly: Penile erection test. The format is in vivo, rats. An excerpt: This test, carried out according to the protocol of Berendsen et al [“Involvement of 5-HT1C receptors in drug-induced penile erections in rats”—Psychopharmacology 101: 57-61(1990)] enables the potential in vivo activity at 5HT2C receptors to be assessed.

A short description of another data set: DRL-72 test. The format is in vivo, rats. An excerpt: This test, carried out according to the protocol of Andrews et al [“Effects of imipramine and mirtazapine on operant performance in rats”—Drug Development Research 32: 58-66 (1994)], gives an indication of potential antidepressant-like activity.
Another data set concerns the target T2, 5-HT2C receptors (Homo sapiens, UniProt P28335).
T2 construct: expressed in transfected cells; host or cells: 3T3 cells
T2 sequence (P28335 33-458): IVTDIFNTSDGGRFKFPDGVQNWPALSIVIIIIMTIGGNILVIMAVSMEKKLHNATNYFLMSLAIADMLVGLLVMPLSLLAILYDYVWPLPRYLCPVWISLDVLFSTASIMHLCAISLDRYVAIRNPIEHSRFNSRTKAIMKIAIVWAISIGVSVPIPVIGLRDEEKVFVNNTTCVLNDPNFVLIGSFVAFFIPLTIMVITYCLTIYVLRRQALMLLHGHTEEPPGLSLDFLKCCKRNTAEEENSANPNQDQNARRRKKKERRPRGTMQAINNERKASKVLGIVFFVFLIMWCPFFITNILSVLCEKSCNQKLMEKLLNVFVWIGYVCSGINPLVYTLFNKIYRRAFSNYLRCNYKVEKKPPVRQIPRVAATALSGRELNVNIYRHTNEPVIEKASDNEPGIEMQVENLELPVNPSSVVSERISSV
Put plainly: Binding test, displacement of [3H]-mesulergine, cloned human receptors expressed in 3T3 cells. As for the experimental part:
The tests are carried out using cloned human receptors expressed in 3T3 cells according to the protocols described in Stam et at “Genomic organization, coding sequence and functional expression of human 5-HT2 and 5-HT1A receptor genes”—European Journal of Pharmacology—Molecular Pharmacology Section 227: 153-162 (1993) and Stam et al “Genomic organisation and functional expression of the gene encoding the human serotonin 5-HT2C receptor”—European Journal of Pharmacology—Molecular Pharmacology Section 269: 339-348 (1994).
(In general: Displacement assays read how much labelled ligand stays bound in the presence of the test substance.)

On to `COc1ccc2c(c1O[C@@H]1CCNC1)CCC2.Cl`, for which the melting point turned out to be 174 °C. On the same count and under the same terms, in the case of `Cl.c1cc2c(c(OC3CNC3)c1)CCC2` it was 65 °C. On the same count and under the same terms, the result for `Cc1ccc2ccccc2c1OC1CNC1.Cl` reads 171 °C. For `Cl.c1ccc2c(OC3CNC3)cccc2c1`, the melting point was found to be 292 °C. `COc1ccc(OC2CNC2)c2ccccc12.Cl`: the melting point was determined as 198 °C. Still for that read-out and setting: in the case of `Cl.c1cc2c(c(OC3CNC3)c1)CCCC2` it was 187 °C. Still for that read-out and setting: in the case of `COc1ccc2c(c1OC1CNC1)CCCC2.Cl` it was 164 °C; in that of `Cl.c1ccc2cc(OC3CNC3)ccc2c1`, 168 °C. On the same count and under the same terms, in the case of `Cl.c1cc2c(c(OC3CNC3)c1)NCCC2` it was greater than 250 °C; in that of `Cl.Clc1ccc2c(c1OC1CNC1)CCC2`, 188 °C; in that of `Cl.Clc1cc(Cl)c2ccccc2c1OC1CNC1`, 187 °C. As to `Cc1ccc(OC2CNC2)c2ccccc12.Cl`, the melting point was found to be 180 °C.

`CC1CCc2c(OC3CNC3)cc(F)cc21.Cl` (centres unmarked): the melting point amounted to 170 °C. `Cl.c1cc(OC2CNC2)c2ccsc2c1` gave a melting point of 203 °C. Still for that read-out and setting: in the case of `Cl.Cl.c1cc(OC2CNC2)c2ccncc2c1` it was 198 °C; in that of `Cl.c1ccc2c(SC3CNC3)cccc2c1`, 159 °C. The same measure, in the same setting: in the case of `COCc1ccc2ccccc2c1OC1CNC1.Cl` it was 127 °C. The molecule `COc1ccc2c(c1OC1CCNC1)CCC2.Cl` (racemic) [Compound 10b, (rac)-3-[(2,3-Dihydro-5-methoxy-1H-inden-4-yl)oxy] pyrrolidine hydrochloride] had a melting point of 154 °C. Moreover, the “Erection of the penis (MED)” value on 5HT2C receptors is 1 mg/kg. Besides, the “Increase in pellets earned in DRL-72 (MED)” value (shortened to “Increase in pellets earned”) in “DRL-72 test” stood at 10 mg/kg. For `Cl.c1ccc2c(OC3CCNC3)cccc2c1` (racemic) [Compound 10c, (rac)-3-[(1-Naphtalenyl)oxy]pyrrolidine hydrochloride], the “selective effect on 5-HT2C receptors in the central nervous system” value on 5-HT2C receptors was “selective effect on 5-HT2C receptors”. `COc1ccc2c(c1OC1CNC1)CCC2.Cl` [Compound 5d, 3-[(2,3-Dihydro-5-methoxy-1H-inden-4-yl)oxy]-azetidine hydrochloride]: the melting point came out at 166 °C. Moreover, the “Erection of the penis (MED)” value at 5HT2C receptors turned out to be 1 mg/kg. For the same molecule, the “Increase in pellets earned” value in the data set “DRL-72 test” came to 10 mg/kg.

With `COc1ccc2c(c1O[C@H]1CCNC1)CCC2.Cl` [Compound 9a, (S)-(+)-3-[(2,3-Dihydro-5-methoxy-1H-inden-4-yl)oxy]-pyrrolidine Hydrochloride], the melting point came out at 176 °C. For the same molecule, at 5HT2C receptors, the “Erection of the penis (MED)” value stood at 0.46 mg/kg. In addition, in the data set “DRL-72 test”, the “Increase in pellets earned” value is 3 mg/kg. Consider `Cl.c1cc2c(c(OC3CCNC3)c1)CCCC2` (centres unmarked) [Compound 9b, 3-[(5,6,7,8-Tetrahydro-1-naphthalenyl)oxy]-pyrrolidine hydrochloride], for which the melting point came out at 207 °C. For the same molecule, on 5-HT2C receptors, the “selective effect on 5-HT2C receptors in the central nervous system” value is given as “selective effect on 5-HT2C receptors”.
